{"source": "patent US12344610B2", "about": "“APOL1 inhibitors and methods of use” (Maze Therapeutics, Inc., priority 2022, dated 2025)", "key": {"[1]": {"system": "HEK293 clonal cell line overexpressing APOL1 G1", "experiment": "APOL1 G1 HEK293 cell rescue assay (Example B3)", "format": "cell-based", "settings": "Homo sapiens, HEK293, HEK293 clonal line overexpressing APOL1 G1; geometric mean of at least 2 runs; † = single run; ¥ = concentration at 50% rescue estimated (no sigmoidal curve)", "method_in_brief": "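HEK293 clonal line overexpressing APOL1 G1; EC50 is half-maximal reversal of APOL1-induced cell death. Values are the geometric mean of ≥2 runs on separate days, each run the average of duplicate wells. Where no sigmoidal curve could be fitted, the concentration giving 50% rescue was estimated.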"}, "[2]": {"system": "Trypanosoma brucei Lister 427 VSG221 with APOL1 G0 recombinant protein", "experiment": "APOL1 G0 trypanosome cell rescue assay (Example B5)", "format": "cell-based", "settings": "Trypanosoma brucei, 20 h, read-out: APOL1 G0 Trypanosome Rescue EC50, Trypanosoma brucei Lister 427 VSG221 with APOL1 G0 recombinant protein, 20 hours, CellTiter-Glo; geometric mean of at least 2 assay runs; † = single assay run", "method_in_brief": "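Compounds in duplicate 2-fold, 11-point series with 0.4% DMSO final. Next, tag-free mature APOL1 variant protein went in from a 2 μg/mL solution, then trypanosomes to 250 per well. Plates incubated 20 h humidified at 37° C, equilibrated to room temperature, and CellTiter-Glo added for luminescence.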"}}}
{"smiles": "CC1(O)CC2(CN(c3ncc(OCCN4CCC5(CC4)C(=O)Nc4ccc(Cl)cc45)cn3)C2)C1", "note": "[Compound 459, 5-chloro-1′-{2-[(2-{6-hydroxy-6-methyl-2-azaspiro[3.3]heptan-2-yl}pyrimidin-5-yl)oxy]ethyl}-1,2-dihydrospiro[indole-3,4′-piperidin]-2-one]", "values": [{"measurement": "EC50", "setting": "[1]", "value": 95.5, "unit": "nM"}, {"measurement": "EC50", "setting": "[2]", "value": 101, "unit": "nM"}]}
{"smiles": "C[C@]1(O)C[C@@H](N2C(=O)C3(CC3)c3cc(OCCN4CCC5(CC4)C(=O)Nc4ccc(Cl)cc45)cnc32)C1", "note": "[Compound 460, 5-chloro-1′-(2-{2′-oxo-1′-[(cis)-3-hydroxy-3-methylcyclobutyl]-1′,2′-dihydrospiro[cyclopropane-1,3′-pyrrolo[2,3-b]pyridin]-5′-yloxy}ethyl)-1,2-dihydrospiro[indole-3,4′-piperidin]-2-one]", "values": [{"measurement": "EC50", "setting": "[1]", "value": 97.7, "unit": "nM"}, {"measurement": "EC50", "setting": "[2]", "value": 104, "unit": "nM"}]}
{"smiles": "[2H]C([2H])([2H])[C@]1(O)C[C@@H](N2C(=O)CCc3cc(OCCN4CCC5(CC4)C(=O)Nc4ccc(Cl)cc45)cnc32)C1", "note": "[Compound 461, 5-chloro-1′-[2-({7-oxo-8-[(cis)-3-hydroxy-3-(^2H3)methylcyclobutyl]-5,6,7,8-tetrahydro-1,8-naphthyridin-3-yl}oxy)ethyl]-1,2-dihydrospiro[indole-3,4′-piperidin]-2-one]", "values": [{"measurement": "EC50", "setting": "[1]", "value": 80.9, "unit": "nM"}, {"measurement": "EC50", "setting": "[2]", "value": 69.2, "unit": "nM"}]}
{"smiles": "C[C@]1(O)C[C@@H](n2c(=O)[nH]c3cc(OCCN4CCC5(CC4)C(=O)Nc4ccc(Cl)cc45)cc(C(F)(F)F)c32)C1", "note": "[Compound 468, 5-chloro-1′-[2-({2-oxo-1-[(cis)-3-hydroxy-3-methylcyclobutyl]-7-(trifluoromethyl)-2,3-dihydro-1H-1,3-benzodiazol-5-yl}oxy)ethyl]-1,2-dihydrospiro[indole-3,4′-piperidin]-2-one]", "values": [{"measurement": "EC50", "setting": "[1]", "value": 14.5, "unit": "nM"}, {"measurement": "EC50", "setting": "[2]", "value": 3.72, "unit": "nM"}]}
{"smiles": "C[C@]1(O)C[C@@H](n2c(=O)[nH]c3cc(OCCN4CCC5(CC4)C(=O)Nc4ccc(C#N)cc45)cc(C(F)(F)F)c32)C1", "note": "[Compound 470, 2-oxo-1′-[2-({2-oxo-1-[(cis)-3-hydroxy-3-methylcyclobutyl]-7-(trifluoromethyl)-2,3-dihydro-1H-1,3-benzodiazol-5-yl}oxy)ethyl]-1,2-dihydrospiro[indole-3,4′-piperidine]-5-carbonitrile]", "values": [{"measurement": "EC50", "setting": "[1]", "value": 47.6, "unit": "nM"}, {"measurement": "EC50", "setting": "[2]", "value": 8.82, "unit": "nM"}]}
